Experimental data: patent US20170100320A1, “COMPOSITION FOR EXTERNAL USE SKIN PREPARATION, CONTAINING THIOREDOXIN” (Amorepacific Corporation, priority 2012, published 2017)

Assays:
Type in all cases: cell-based
[1] = molecular target: T1, 5α-reductase in HEK293-5αR2 cells (Homo sapiens, UniProt P31213); experiment: Inhibition of 5α-reductase activity ([14C]testosterone to [14C]dihydrotestosterone conversion); conditions: 2 hours incubation at 37° C.; for Conversion (%): testosterone to DHT
T1 construct: 3xFLAG; expressed in transfected cells; host or cells: HEK293 (Human Embryonic Kidney 293)
T1 sequence (P31213 1-254): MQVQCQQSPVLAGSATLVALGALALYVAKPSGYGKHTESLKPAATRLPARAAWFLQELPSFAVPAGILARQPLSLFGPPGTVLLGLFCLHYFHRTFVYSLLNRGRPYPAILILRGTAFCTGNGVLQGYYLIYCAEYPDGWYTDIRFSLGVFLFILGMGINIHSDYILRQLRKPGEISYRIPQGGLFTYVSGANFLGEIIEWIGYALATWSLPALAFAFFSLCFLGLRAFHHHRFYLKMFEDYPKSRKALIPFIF
Experimental: In order to examine the effect of inhibiting 5α-reductase activity, the ratio of [^14C]testosterone-to-[^14C]dihydrotestosteron conversion in Human Embryonic Kidney 293(HEK293)-5αR2 cells was measured. HEK293 cells transfected with plasmid p3×FLAG-CMV™-5αR2 were added to a 24-well plate at a density of 2.5×10^5cells/well and cultured (Park et al., 2003, J. Dermatological Science. Vol. 31, pp. 91-98). The next day, the medium was replaced with a fresh medium containing an enzyme substrate and an inhibitor. As the substrate of the medium, 0.05 μCi [^14C]testosterone (Amersham Pharmacia Biotech, UK) was used.
In order to measure the degree of inhibition of 5α-reductase activity, thioredoxin was added to the cells which were then incubated in a 5% CO2 incubator at 37° C. for 2 hours. At the same time, a medium containing no thioredoxin was used as a negative, and a medium containing finasteride was used as a positive control. Next, the culture medium was collected, and steroid was extracted with 800 μl of ethyl acetate. The upper organic solvent layer was separated and dried, and the remaining material was dissolved in 50 μl of ethyl acetate and developed on silica plastic sheet kieselgel 60 F254 using ethyl acetate-hexane (1:1) as a developing solvent.
The plastic sample was dried in air, and the amount of isotopes was measured using a Vas system. Specifically, the dried plastic sheet together with an X-ray film was placed in a Vas cassette, and after 1 week, the amounts of the testosterone and dihydrotestosterone (DHT) isotopes were measured, and then the percent conversion and the percent inhibition were measured using the following equations 1 and 2, respectively.
Conversion (%)=radioactivity in the DHT region/total radioactivity×100
Inhibition (%)=(conversion of control−conversion of sample)/conversion of control×100

fibroblasts = experiment: Stimulation of collagen biosynthesis (procollagen type (I) ELISA); conditions: 24 hours; relative to control = 100%; TGF-beta 10 ng/ml
Experimental: The effect of thioredoxin of the present invention on the stimulation of collagen biosynthesis was measured in comparison with TGF-beta.
First, fibroblasts were seeded into a 24-well plate at a density of 10^5cells/well and cultured in serum-free DMEM medium for 24 hours to a confluence of about 90%. Then, the cells were treated with each of a solution of thioredoxin of the present invention and 10 ng/ml of TGF-beta dissolved in serum-free medium and incubated in a CO2 incubator for 24 hours. The supernatants of the cell cultures were collected and the amount of procollagen therein was measured using a procollagen type (I) ELISA kit. The values of collagen synthesis (%) in Table 8 are expressed as percentages relative to the control taken as 100%.

human keratinocytes = experiment: Stimulation of keratinocyte differentiation (cornified envelope protein, absorbance 340 nm); conditions: 5 days culture; thioredoxin 5 ppm; low-calcium negative control = 100
Experimental: In order to examine the effect of thioredoxin on the stimulation of differentiation of keratinocytes, the amount of cornified envelope (CE) protein produced during the differentiation of keratinocytes was measured by absorbance in the following manner.
Specifically, human keratinocytes, isolated from the […] of newborns and primarily cultured, were placed in a culture flask and attached to the bottom. Then, the cells were cultured with a medium containing 5 ppm of thioredoxin for 5 days until the cells reached to a confluence of about 70-80%. At the same time, a low calcium (0.03 mM)-treated group and a high calcium (1.2 mM)-treated group were used as a negative control group and a positive control group, respectively. Then, the cultured cells were harvested and washed with PBS (phosphate buffered saline). Then, the cells were sonicated in 1 ml of 10 mM Tris-HCl (pH 7.4) containing 2% SDS (sodium dodecyl sulfate) and 20 mM DTT (dithiothreitol), boiled and centrifuged. The precipitate was suspended in 1 ml of PBS, and the absorbance at 340 nm was measured. Separately, a portion of the solution following the sonication was taken, and the protein content thereof was measured as a reference for evaluating the degree of differentiation of the cells.

Row | Inhibition (%) ([1]; relative to conversion of control) | Compound | Conversion (%) [1] [%] | Collagen synthesis (%) (fibroblasts) | Degree (%) of differentiation of keratinocytes (human keratinocytes) [%]
1 |  | CC(C)(C)NC(=O)[C@H]1CC[C@H]2[C@@H]3CC[C@H]4NC(=O)C=C[C@]4(C)[C@H]3CC[C@]12C [Positive control, finasteride, reference compound] | 27.6 |  | 
2 |  | TGF-β [reference compound] |  | 183.5 | 
3 | 60.8 | Thioredoxin | 15.9 | 196.2 | 295
